From patent publication US10681909B2, “Herbicidal triazoles” (FMC Corporation, priority 2014, dated 2020)

How the values were obtained:
waterhemp = test: Test C preemergence; format: in vivo, Amaranthus rudis; settings: for Waterhemp plant response rating (0 to 100): Preemergence, visual rating after 13 to 15 d; for Plant response rating (scale of 0 to 100 where 0 is no effect and 100 is complete control): Waterhemp, preemergence, 250 g ai/ha
Text: (§1) Seeds of plant species selected from blackgrass (Alopecurus myosuroides), ryegrass, Italian (Italian ryegrass, Lolium multiflorum), wheat (winter wheat, Triticum aestivum), galium (catchweed bedstraw, Galium aparine), corn (Zea mays), crabgrass, large (large crabgrass, Digitaria sanguinalis), foxtail, giant, (giant foxtail, Setaria faberii), johnsongrass (Sorghum halepense), lambsquarters (Chenopodium album), morningglory (Ipomoea coccinea), nutsedge, yellow (yellow nutsedge, Cyperus esculentus), pigweed (Amaranthus retroflexus), ragweed (common ragweed, Ambrosia elatior), soybean (Glycine max), barnyardgrass (Echinochloa crus-galli), oilseed rape (Brassica napus), waterhemp (common waterhemp, Amaranthus rudis), and velvetleaf (Abutilon theophrasti) were planted into a blend of loam soil and sand and treated preemergence with test chemicals formulated in a non-phytotoxic solvent mixture which included a surfactant. At the same time, plants selected from these crop and weed species and also chickweed (common chickweed, Stellaria media), oat, wild (wild oat, Avena fatua), and kochia (Kochia scoparia), were planted in pots containing Sunshine Redi-Earth® planting medium comprising spaghnum peat moss, vermiculite, starter nutrients and dolomitic limestone and treated with postemergence applications of test chemicals formulated in the same manner. Plants ranged in height from 2 to 18 cm (1- to 4-leaf stage) for postemergence treatments. […] A dash (-) response means no test result.

blackgrass = test: Test D preemergence; format: in vivo, Alopecurus myosuroides; settings: for Plant response rating (0 to 100), Blackgrass: 16 g ai/ha, 0 is no effect, 100 is complete control; for Plant response rating: Blackgrass: scale 0 to 100
Text: (§2) Seeds of plant species selected from bluegrass (annual bluegrass, Poa annua), blackgrass (Alopecurus myosuroides), canarygrass (Phalaris minor), chickweed (common chickweed, Stellaria media), galium (catchweed bedstraw, Galium aparine), bromegrass, down (downy bromegrass, Bromus tectorum), Russian thistle (Salsola kali), field poppy (Papaver rhoeas), field violet (Viola arvensis), foxtail, green (green foxtail, Setaria viridis), deadnettle (henbit deadnettle, Lamium amplexicaule), ryegrass, Ital. (Italian ryegrass, Lolium multiflorum), kochia (Kochia scoparia), lambsquarters (Chenopodium album), oilseed rape (Brassica napus), pigweed (Amaranthus retroflexus), chamomile (scentless chamomile, Matricaria inodora), speedwell (bird's-eye speedwell, Veronica persica), barley, spring (spring barley, Hordeum vulgare), wheat, spring (spring wheat, Triticum aestivum), buckwheat, wild (wild buckwheat, Polygonum convolvulus), wild mustard (Sinapis arvensis), oat, wild (wild oat, Avena fatua), radish, wild (wild radish, Raphanus raphanistrum), […]), barley, winter (winter barley, Hordeum vulgare), and wheat, winter (winter wheat, Triticum aestivum) were planted into a silt loam soil and treated preemergence with test chemicals formulated in a non-phytotoxic solvent mixture which included a surfactant. At the same time, these species were planted in pots containing Sunshine Redi-Earth® planting medium comprising spaghnum peat moss, vermiculite, starter nutrients and dolomitic limestone and treated with postemergence applications of the test chemicals formulated in the same manner. Plants ranged in height from 2 to 18 cm (1- to 4-leaf stage). Treated plants and controls were maintained in a controlled growth environment for 14 to 21 d after which time all species were compared to controls and visually evaluated. […] A dash (-) response means no test result.

velvetleaf = test: Test C preemergence; format: in vivo, Abutilon theophrasti; settings: for Velvetleaf plant response rating (0 to 100): Preemergence, visual rating after 13 to 15 d; for Plant response rating (scale of 0 to 100 where 0 is no effect and 100 is complete control): Velvetleaf, preemergence, 250 g ai/ha
Text: as §1

chickweed = test: Test D preemergence; format: in vivo, Stellaria media; settings: for Plant response rating (0 to 100), Chickweed: 16 g ai/ha, 0 is no effect, 100 is complete control; for Plant response rating: Chickweed: scale 0 to 100
Text: as §2

wild mustard = test: Test D postemergence; format: in vivo, Sinapis arvensis; settings: scale 0 to 100
Text: as §2

johnsongrass = test: Test C preemergence; format: in vivo, Sorghum halepense; settings: for Plant response rating (scale of 0 to 100 where 0 is no effect and 100 is complete control): Johnsongrass, preemergence; for Johnsongrass plant response rating (0 to 100): Preemergence, visual rating after 13 to 15 d
Text: as §1

chamomile = test: Test D preemergence; format: in vivo, Matricaria inodora; settings: for Plant response rating (0 to 100), Chamomile: 16 g ai/ha, 0 is no effect, 100 is complete control; for Plant response rating: Chamomile: scale 0 to 100
Text: as §2

pigweed = test: Test C preemergence; format: in vivo, Amaranthus retroflexus; settings: for Plant response rating (scale of 0 to 100 where 0 is no effect and 100 is complete control): Pigweed, preemergence; for Pigweed plant response rating (0 to 100): Preemergence, visual rating after 13 to 15 d
Text: as §1

wheat, spring = test: Test D preemergence; format: in vivo, Triticum aestivum; settings: for Plant response rating (0 to 100), Wheat, Spring: 16 g ai/ha, 0 is no effect, 100 is complete control; for Plant response rating: Wheat, Spring: scale 0 to 100
Text: as §2

wheat, winter = test: Test D preemergence; format: in vivo, Triticum aestivum; settings: for Plant response rating (0 to 100), Wheat, Winter: 16 g ai/ha, 0 is no effect, 100 is complete control; for Plant response rating: Wheat, Winter: scale 0 to 100
Text: as §2

bluegrass = test: Test D postemergence; format: in vivo, Poa annua; settings: scale 0 to 100
Text: as §2

Row | Structure (SMILES) | Waterhemp plant response rating (0 to 100) (waterhemp; 31 g ai/ha) | Waterhemp plant response rating (0 to 100) (waterhemp; 62 g ai/ha) | Plant response rating (scale of 0 to 100 where 0 is no effect and 100 is complete control) (waterhemp) | Plant response rating (0 to 100), Blackgrass (blackgrass) | Plant response rating: Blackgrass (blackgrass; 31 g ai/ha) | Plant response rating: Blackgrass (blackgrass; 62 g ai/ha) | Plant response rating: Blackgrass (blackgrass; 125 g ai/ha) | Velvetleaf plant response rating (0 to 100) (velvetleaf; 31 g ai/ha) | Velvetleaf plant response rating (0 to 100) (velvetleaf; 62 g ai/ha) | Plant response rating (scale of 0 to 100 where 0 is no effect and 100 is complete control) (velvetleaf) | Plant response rating (0 to 100), Chickweed (chickweed) | Plant response rating: Chickweed (chickweed; 31 g ai/ha) | Plant response rating: Chickweed (chickweed; 62 g ai/ha) | Plant response rating: Chickweed (chickweed; 125 g ai/ha) | Plant response rating: Mustard, Wild (wild mustard; 16 g ai/ha) | Plant response rating: Mustard, Wild (wild mustard; 31 g ai/ha) | Plant response rating: Mustard, Wild (wild mustard; 62 g ai/ha) | Plant response rating: Mustard, Wild (wild mustard; 125 g ai/ha) | Plant response rating (scale of 0 to 100 where 0 is no effect and 100 is complete control) (johnsongrass; 125 g ai/ha) | Plant response rating (scale of 0 to 100 where 0 is no effect and 100 is complete control) (johnsongrass; 250 g ai/ha) | further results
1 | Fc1ccc(-c2nc(OCC(F)(F)F)n(Cc3ccnc(C(F)(F)F)c3)n2)cc1 [Compound 30] | 100 | 100 | 100 | 30 | 45 | 60 | 70 | 20 | 70 | 85 | 70 | 80 | 100 | 100 | 90 | 100 | 100 | 100 | 85 | 95 | Johnsongrass plant response rating (0 to 100) (johnsongrass; 31 g ai/ha): 35; Johnsongrass plant response rating (0 to 100) (johnsongrass; 62 g ai/ha): 65; Plant response rating (0 to 100), Chamomile (chamomile): 30; Plant response rating: Chamomile (chamomile; 31 g ai/ha): 40; Plant response rating: Chamomile (chamomile; 62 g ai/ha): 100; Plant response rating: Chamomile (chamomile; 125 g ai/ha): 100; Plant response rating (scale of 0 to 100 where 0 is no effect and 100 is complete control) (pigweed; 125 g ai/ha): 100; Plant response rating (scale of 0 to 100 where 0 is no effect and 100 is complete control) (pigweed; 250 g ai/ha): 100; Pigweed plant response rating (0 to 100) (pigweed; 31 g ai/ha): 100; Pigweed plant response rating (0 to 100) (pigweed; 62 g ai/ha): 100; Plant response rating (0 to 100), Wheat, Spring (wheat, spring): 25; Plant response rating: Wheat, Spring (wheat, spring; 62 g ai/ha): 35; Plant response rating: Wheat, Spring (wheat, spring; 125 g ai/ha): 45; Plant response rating (0 to 100), Wheat, Winter (wheat, winter): 15; Plant response rating: Wheat, Winter (wheat, winter; 62 g ai/ha): 25; Plant response rating: Wheat, Winter (wheat, winter; 125 g ai/ha): 35; Plant response rating: Bluegrass (bluegrass; 16 g ai/ha): 65; Plant response rating: Bluegrass (bluegrass; 31 g ai/ha): 70; Plant response rating: Bluegrass (bluegrass; 62 g ai/ha): 75; Plant response rating: Bluegrass (bluegrass; 125 g ai/ha): 80
2 | FC(F)(F)COc1nc(-c2ccc(Cl)cc2)nn1Cc1ccnc(C(F)(F)F)c1 [Compound 31] | 100 | 100 | 100 | 35 | 40 | 60 | 75 | 35 | 55 | 80 | 80 | 90 | 100 | 100 | 100 | 100 | 100 | 100 | 85 | 95 | Johnsongrass plant response rating (0 to 100) (johnsongrass; 31 g ai/ha): 75; Johnsongrass plant response rating (0 to 100) (johnsongrass; 62 g ai/ha): 80; Plant response rating (0 to 100), Chamomile (chamomile): 30; Plant response rating: Chamomile (chamomile; 31 g ai/ha): 95; Plant response rating: Chamomile (chamomile; 62 g ai/ha): 100; Plant response rating: Chamomile (chamomile; 125 g ai/ha): 100; Plant response rating (scale of 0 to 100 where 0 is no effect and 100 is complete control) (pigweed; 125 g ai/ha): 100; Plant response rating (scale of 0 to 100 where 0 is no effect and 100 is complete control) (pigweed; 250 g ai/ha): 100; Pigweed plant response rating (0 to 100) (pigweed; 31 g ai/ha): 98; Pigweed plant response rating (0 to 100) (pigweed; 62 g ai/ha): 100; Plant response rating (0 to 100), Wheat, Spring (wheat, spring): 30; Plant response rating: Wheat, Spring (wheat, spring; 62 g ai/ha): 40; Plant response rating: Wheat, Spring (wheat, spring; 125 g ai/ha): 45; Plant response rating (0 to 100), Wheat, Winter (wheat, winter): 20; Plant response rating: Wheat, Winter (wheat, winter; 62 g ai/ha): 20; Plant response rating: Wheat, Winter (wheat, winter; 125 g ai/ha): 30; Plant response rating: Bluegrass (bluegrass; 16 g ai/ha): 50; Plant response rating: Bluegrass (bluegrass; 31 g ai/ha): 65; Plant response rating: Bluegrass (bluegrass; 62 g ai/ha): 75; Plant response rating: Bluegrass (bluegrass; 125 g ai/ha): 85
3 | CCOc1nc(-c2ccc(C(F)(F)F)cc2)nn1Cc1ccnc(C(F)(F)F)c1 [Compound 35, 4-[[5-ethoxy-3-[4-(trifluoromethyl)phenyl]-1H-1,2,4-triazole-1-yl]methyl]-2-(trifluoromethyl)pyridine] | 100 | 100 | 100 | 35 | 40 | 65 | 95 | 70 | 65 | 90 | 70 | 85 | 100 | 100 | 70 | 100 | 100 | 100 | 95 | 98 | Johnsongrass plant response rating (0 to 100) (johnsongrass; 31 g ai/ha): 90; Johnsongrass plant response rating (0 to 100) (johnsongrass; 62 g ai/ha): 95; Plant response rating (0 to 100), Chamomile (chamomile): 95; Plant response rating: Chamomile (chamomile; 31 g ai/ha): 100; Plant response rating: Chamomile (chamomile; 62 g ai/ha): 100; Plant response rating: Chamomile (chamomile; 125 g ai/ha): 100; Plant response rating (scale of 0 to 100 where 0 is no effect and 100 is complete control) (pigweed; 125 g ai/ha): 100; Plant response rating (scale of 0 to 100 where 0 is no effect and 100 is complete control) (pigweed; 250 g ai/ha): 100; Pigweed plant response rating (0 to 100) (pigweed; 31 g ai/ha): 98; Pigweed plant response rating (0 to 100) (pigweed; 62 g ai/ha): 100; Plant response rating (0 to 100), Wheat, Spring (wheat, spring): 25; Plant response rating: Wheat, Spring (wheat, spring; 62 g ai/ha): 50; Plant response rating: Wheat, Spring (wheat, spring; 125 g ai/ha): 50; Plant response rating (0 to 100), Wheat, Winter (wheat, winter): 20; Plant response rating: Wheat, Winter (wheat, winter; 62 g ai/ha): 40; Plant response rating: Wheat, Winter (wheat, winter; 125 g ai/ha): 45; Plant response rating: Bluegrass (bluegrass; 16 g ai/ha): 45; Plant response rating: Bluegrass (bluegrass; 31 g ai/ha): 70; Plant response rating: Bluegrass (bluegrass; 62 g ai/ha): 75; Plant response rating: Bluegrass (bluegrass; 125 g ai/ha): 95
